# From US20220054476A1, “SUSTAINED LOCAL DRUG LEVELS FOR INNATE IMMUNE AGONISTS” (Ascendis Pharma Oncology Division A/S, priority 2019, published 2022)
# Marks after values point to notes of the source that are not given here.
# Legend:
# in vivo = assay: in vivo; parameters: species or system WISTAR rats; conditions: male, Wistar, rat, sc, 25 ug; for half-life: t1/2 (biphasic)
# Excerpt: Hydrogels were suspended (ca. 6% wt/v) PBST buffer at pH 7.4. […] Blood samples were withdrawn and used for plasma generation over the course of 28 d. […] Plasma concentration profiles were generated and analyzed with Phoenix WinNonlin software (Certara, Princeton, N.J., USA).
# CT26 tumor cells = assay: In vivo anti-tumor efficacy, absolute tumor volumes (Example 11); parameters: species or system BALB/C mice; conditions: single intratumoral dose (4: 20 μg; 13c: 50 μL)
# Experimental: Mice were subcutaneously implanted with 3×10^5 CT26 tumor cells in the left and right flanks. […] Hydrogels were administered as suspensions in PBST buffer. Following treatment initiation, anti-tumor efficacy was assessed by determination of tumor volumes at various time points from tumor size measurements with a caliper. Tumor volumes were calculated according to the formula: Tumor volume=(L×W^2)×0.5 where L is the length of the tumor and W the width (both in mm). Mice were removed from the study once tumors were greater than 1500 mm^3.
# [1] = test system: IFNγ, IL-6, CCL2/MCP-1, TNFα in plasma; assay: In vivo cytokine induction, plasma cytokine levels (Example 12); parameters: species or system BALB/C mice; conditions: for IFNγ plasma level, Mean: values at/below LLOQ set to 0.01
# Experimental: Mice were subcutaneously implanted with 3×10^5 CT26 tumor cells in the left and right flanks. […] Hydrogels were administered as suspensions in PBST buffer. K2 EDTA-preserved blood samples were collected by retro-orbital bleed at various time points following drug administration and plasma was isolated following centrifugation at 2000×g for 5 minutes at 4° C. and frozen. Plasma samples were stored at −80° C. Plasma was thawed and undiluted samples were assessed for cytokine levels using the 36-Plex Mouse ProcartaPlex™ Cytokine Panel 1A (ThermoFisher Scientific) following manufacturer's recommendations. Cytokines were measured on the Bio-Plex 200 (BioRad) following kit instructions.
# [2] = test system: Ly-6C^+ antigen presenting cells, MHCII^+ antigen presenting cells, CD8^+, Ly-6C^+ CD8^+ and CD4^+ T cells of tumor draining lymph nodes; assay: Flow cytometric profiling of tumor draining lymph node immune cells (Example 15); format: in vivo, BALB/C mice; conditions: 7 days after randomization
# Experimental: Hydrogels were administered as suspension in PTP buffer. Some cohorts were further treated with 20 μg human IL-2 (Peprotech, Rocky Hill, N.J.), intraperitoneally (I.P.), twice a day for 5 days. Mice were sacrificed 7 days after randomization (D0). Following sacrifice, tumor draining lymph nodes were isolated from both flanks and were dissociated mechanically to generate a single cell suspension at a cell concentration of 1×10^6 cells per sample. Cell suspensions were centrifuged at 300 g for 5 minutes. Supernatants were discarded and cells were resuspended in FACS buffer with 1 μg/ml Fc-Block and incubated at 4° C. for 10 minutes in the dark. Surface marker antibody mixtures (antibody concentration: 10 μg/mL) in FACS buffer were added to each sample and samples were incubated in the dark at 4° C. for 30 minutes. Cells were centrifuged at 300 g for 5 minutes and supernatants were discarded. Cells were washed and then resuspended with FACS buffer before cytometer collection.
# After collection, FACS data was analyzed using FlowJo Version 10.6.1. Compensation was digitally adjusted using single antibody-stained beads. Samples with less than 90% viability, as determined by LiveDead cell staining, were excluded from the analysis. Cells were defined using the following gating strategy: • 1) Ly-6C^+ antigen presenting cells: FSC-H/FSC-A Singlets/LiveDead^−/CD45^+/CD3^−/CD335^−/Ly-6C^+ • 2) Ly-6C^+ MHCII^+ antigen presenting cells: FSC-H/FSC-A Singlets/LiveDead^−/CD45^+/CD3^−/CD335^−/Ly-6C^+/IA/IE (MHCII)^+ • 3) CD8^+ T cells: FSC-H/FSC-A Singlets/LiveDead^−/CD45^+/CD3^+/CD8 single positive • 4) Ly-6C^+ CD8^+ T cells: FSC-H/FSC-A Singlets/LiveDead^−/CD45^+/CD3^+/CD8 single positive/Ly-6C^+
# [3] = Resiquimod concentration in plasma samples after intratumoral injection (Example 17); format: in vivo, BALB/C mice; conditions: female, BALB/C, mouse, other: intratumoral injection, 10 μg
# Experimental: Hydrogels were administered as suspensions in PTP buffer. […] Tumors were excised, weighed and snap frozen.
# [4] = test system: cytokine and chemokine genes (Il1a, Ccl3, Il1b, Cxcl2, Ccl2, Ccl4, Il10, Ifna4, Cxcl1, Cxcl10, Tnf) in PBMC; assay: PBMC gene expression 6 hours post-treatment, qPCR (Example 17); format: in vivo, BALB/C mice; parameters: key to Cxcl2 gene expression, Mean (2^ΔΔCT) / Ccl2 gene expression, Mean (2^ΔΔCT) / Ccl4 gene expression, Mean (2^ΔΔCT) / Ifna4 gene expression, Mean (2^ΔΔCT) / Cxcl1 gene expression, Mean (2^ΔΔCT) / Cxcl10 gene expression, Mean (2^ΔΔCT) / Il1a gene expression, Mean (2^ΔΔCT) / Tnf gene expression, Mean (2^ΔΔCT): fold change vs untreated, 2^-ΔΔCT, normalized to B2M/UBB/GAPDH
# Experimental: Hydrogels were administered as suspensions in […]. […] Tumors were excised, weighed and snap frozen. […] For PBMC isolations, approximately 600 μl of whole blood was collected via cardiac puncture. The collected whole blood from each individual mouse was diluted with a 1:1 ratio of pre-warmed PBS supplemented with 2% Fetal Bovine Serum (FBS). Then an equal volume of Histopaque-1083 was added to a new sterile 15 mL conical tube, where the diluted whole blood was layered over the Histopaque-1083. The mixture was then centrifuged at 400 g for 30 minutes. The top plasma layer was discarded, and the white translucent interlayer (mononuclear cells) was carefully transferred to a new sterile centrifuge tube. The mononuclear cells were then washed with PBS supplemented with 2% FBS and then were spun down at 250 g for 10 minutes. Afterwards, the cells were lysed with 2 ml of Ammonium-Chloride-Potassium (ACK) lysis buffer (Gibco) for 5 minutes at room temperature to get rid of the red blood cells following manufacturer's instruction. Subsequently, the cells were washed twice with PBS supplemented with 2% FBS and were centrifuged at 250 g for 10 minutes. Then, the supernatant was removed and the PBMC cell pellet was lysed in RLT buffer (Qiagen) and stored at −80° C. before being proceeded to RNA extraction and isolation. Lysates from untreated control samples and 6 hour treated samples were thawed and RNA was isolated using the RNeasy Mini Kit (QIAGEN) following manufacturer's recommendations. Following the first column washing step, DNA was digested directly on the column using the RNase-free DNase Set (TIANGEN) following manufacturer's recommendations. RNA was eluted with RNase-free water. RNA concentrations were measured using a NanoDrop (ThermoFisher) and then adjusted to 200 ng/mL with RNase-free water. RNA quality was assessed using a NanoDrop (ThermoFisher). […] Reverse transcription was performed using random primers, 10 mM dNTP mix, and RNase inhibitor (TIANGEN). Reverse transcription was performed with the following thermal steps: 25° C. for 10 minutes, 37° C. for 120 minutes, 55° C. for 5 minutes. 200 ng of cDNA was used for quantitative PCR using the RT^2 SYBR Green ROX qPCR Master mix (2×) kit (QIAGEN) following manufacturer's recommendations. Probe sets used for qPCR reactions are as follows: [table] Cycle thresholds (CT) were collected using a 384-well platform ABI-7900H real-time qPCR system (Applied Biosystems). B2M, Ubb and GAPDH were used as housekeeping control genes. Data is reported as the average of the 2^-ΔΔCT values for each treatment. 2^-ΔΔCT values were calculated with the following formula: 2^-ΔΔCT=2^−(ΔCT(treated)−ΔCT(untreated)) ΔCT(treated)═CT(treated)−CT (average treated housekeeping) where CT(treated)═CT of the gene of interest of a sample triplicate in the treatment group and CT (treated housekeeping)=Total average CT of the B2M, UBB and GAPDH housekeeping genes of the same sample triplicate in the same treatment group. ΔCT(untreated)═CT (untreated)−CT (untreated housekeeping) where CT (untreated)=average of the CTs of the untreated triplicates at the same timepoint as the CT(treated) comparator and CT (untreated housekeeping)=Total average CT of the B2M, UBB and GAPDH housekeeping genes of the untreated triplicates. For each gene, 3 technical replicates were analyzed per biological replicate. Undetermined technical replicate CT values were recorded as zero ΔCT values. 4-5 biological replicates were assessed in total.
# [5] = 1 h post-treatment, single intratumoral dose
# [6] = 3 h post-treatment, single intratumoral dose
# [7] = 6 h post-treatment, single intratumoral dose
# [8] = 10 h post-treatment, single intratumoral dose
# [9] = 24 h post-treatment, single intratumoral dose
compound,measurement,setting,value
"CCOCc1nc2c(N)nc3ccccc3c2n1CC(C)(C)O [Compound 4, Resiquimod]",AUC,in vivo,65.4 ng·h/mL
same,Cmax,in vivo,23.1 ng/mL
same,half-life,in vivo; first value,1.5 h
same,half-life,in vivo; second value,10 h
same,"Absolute Tumor Volumes, Mean",CT26 tumor cells; day 0 post-treatment,88.82 mm^3
same,"Absolute Tumor Volumes, Mean",CT26 tumor cells; day 2 post-treatment,108.44 mm^3
same,"Absolute Tumor Volumes, Mean",CT26 tumor cells; day 4 post-treatment,128.42 mm^3
same,"Absolute Tumor Volumes, Mean",CT26 tumor cells; day 7 post-treatment,316.07 mm^3
same,"Absolute Tumor Volumes, Mean",CT26 tumor cells; day 9 post-treatment,549.72 mm^3
same,"Absolute Tumor Volumes, Mean",CT26 tumor cells; day 11 post-treatment,957.90 mm^3
same,"Absolute Tumor Volumes, Mean",CT26 tumor cells; day 14 post-treatment,1220.96 mm^3
same,"CCL2/MCP-1 plasma level, Mean",[1]; [5],357.83 pg/mL
same,"IL-6 plasma level, Mean",[1]; [5],"3618.87†, ‡ pg/mL"
same,"TNFα plasma level, Mean",[1]; [5],830.84 pg/mL
same,"IFNγ plasma level, Mean","[1]; 1 h post-treatment, single intratumoral dose (4: 20 μs; 13c: 50 μL)",4.04 pg/mL
same,"CCL2/MCP-1 plasma level, Mean",[1]; [6],"4230.35†, ‡ pg/mL"
same,"IL-6 plasma level, Mean",[1]; [6],"1739.75†, ‡ pg/mL"
same,"TNFα plasma level, Mean",[1]; [6],136.25 pg/mL
same,"IFNγ plasma level, Mean",[1]; [6],"15.49†, ‡ pg/mL"
same,"CCL2/MCP-1 plasma level, Mean",[1]; [7],"1039.17†, ‡ pg/mL"
same,"IL-6 plasma level, Mean",[1]; [7],88.59 pg/mL
same,"TNFα plasma level, Mean",[1]; [7],35.49 pg/mL
same,"IFNγ plasma level, Mean",[1]; [7],"40.72†, ‡ pg/mL"
same,"CCL2/MCP-1 plasma level, Mean",[1]; [8],847.07† pg/mL
same,"IL-6 plasma level, Mean",[1]; [8],154.51 pg/mL
same,"TNFα plasma level, Mean",[1]; [8],43.32 pg/mL
same,"IFNγ plasma level, Mean",[1]; [8],"28.19†, ‡ pg/mL"
same,"CCL2/MCP-1 plasma level, Mean",[1]; [9],92.58 pg/mL
same,"IL-6 plasma level, Mean",[1]; [9],44.71 pg/mL
same,"TNFα plasma level, Mean",[1]; [9],9.74 pg/mL
same,"IFNγ plasma level, Mean",[1]; [9],2.38 pg/mL
same,"Frequency of CD4^+ T cells of CD3^+ T cells, Mean",[2]; injected right flank tumor,69.1%
same,"Frequency of CD8^+ T cells of CD3^+ T cells, Mean",[2]; injected right flank tumor,29.23%
same,"Frequency of IA-IE (MHCII)^+ antigen presenting cells of Ly-6C^+ antigen presenting cells, Mean",[2]; injected right flank tumor,69.63%
same,"Frequency of Ly-6C^+ T cells of CD8^+ T cells, Mean",[2]; injected right flank tumor,53.7%
same,"Frequency of Ly-6C^+ antigen presenting cells of non-T cells, Mean",[2]; injected right flank tumor,2.5%
same,"Frequency of CD4^+ T cells of CD3^+ T cells, Mean",[2]; uninjected left flank tumor,69.25%
same,"Frequency of CD8^+ T cells of CD3^+ T cells, Mean",[2]; uninjected left flank tumor,29%
same,"Frequency of IA-IE (MHCII)^+ antigen presenting cells of Ly-6C^+ antigen presenting cells, Mean",[2]; uninjected left flank tumor,35.05%
same,"Frequency of Ly-6C^+ T cells of CD8^+ T cells, Mean",[2]; uninjected left flank tumor,48%
same,"Frequency of Ly-6C^+ antigen presenting cells of non-T cells, Mean",[2]; uninjected left flank tumor,7.8%
same,concentration at 0 h,[3]; 0 hours,210 ng/mL
same,concentration at 6 h,[3]; 6 hours,0.36 ng/mL
same,concentration at 22 h,[3]; 22 hours,0.022 ng/mL
same,concentration at 72 h,[3]; 72 hours,0.014 ng/mL
same,"Ccl2 gene expression, Mean (2^ΔΔCT)",[4]; qPCR,6.75
same,"Ccl3 gene expression, Mean (2^ΔΔCT)",[4]; qPCR,1.43†
same,"Ccl4 gene expression, Mean (2^ΔΔCT)",[4]; qPCR,1.31
same,"Cxcl1 gene expression, Mean (2^ΔΔCT)",[4]; qPCR,7.41
same,"Cxcl2 gene expression, Mean (2^ΔΔCT)",[4]; qPCR,35.37
same,"Cxcl10 gene expression, Mean (2^ΔΔCT)",[4]; qPCR,45.38
same,"Ifna4 gene expression, Mean (2^ΔΔCT)",[4]; qPCR,2.97
same,"Il1a gene expression, Mean (2^ΔΔCT)",[4]; qPCR,0.41
same,"Il1b gene expression, Mean (2^ΔΔCT)",[4]; qPCR,3.71†
same,"Il10 gene expression, Mean (2^ΔΔCT)",[4]; qPCR,2.77†
same,"Tnf gene expression, Mean (2^ΔΔCT)",[4]; qPCR,4.64
same,Ccl2 Fold change (4/13i),[4]; ratio of mean 4 to mean 13i,2.82
same,Ccl3 Fold change (4/13i),[4]; ratio of mean 4 to mean 13i,1.64
same,Ccl4 Fold change (4/13i),[4]; ratio of mean 4 to mean 13i,1.74
same,Cxcl1 Fold change (4/13i),[4]; ratio of mean 4 to mean 13i,11.54
same,Cxcl2 Fold change (4/13i),[4]; ratio of mean 4 to mean 13i,6.43
same,Cxcl10 Fold change (4/13i),[4]; ratio of mean 4 to mean 13i,21.41
same,Ifna4 Fold change (4/13i),[4]; ratio of mean 4 to mean 13i,20.48
same,Il1a Fold change (4/13i),[4]; ratio of mean 4 to mean 13i,1.78
same,Il1b Fold change (4/13i),[4]; ratio of mean 4 to mean 13i,7.92
same,Il10 Fold change (4/13i),[4]; ratio of mean 4 to mean 13i,2.29
same,Tnf Fold change (4/13i),[4]; ratio of mean 4 to mean 13i,4.45
